In publication PMC6736568, “Discovery of Novel Anti-cryptosporidial Activities From Natural Products by in vitro High-Throughput Phenotypic Screening” (Frontiers in Microbiology, 2019):
Where two headings read alike, the source gives them in different places.

Key:
Cryptosporidium parvum = assay: qRT-PCR assay of the growth of C. parvum in vitro in HCT-8 host cells (primary and secondary screening, EC50); assay type: cell-based
[1] = primary screening at 10 uM, from Hs18S ΔCT
[2] = primary screening at 10 uM, treated vs control

Compound	Cytotoxicity (%) (HCT-8 host cells (Hs18S); [1])	Hs18S ΔCT (HCT-8 host cells (Hs18S); [2])	Inhibition (%) (Cryptosporidium parvum; primary screening at 10 uM)	also measured
C[C@@H]1[C@H](O)[C@@H](C)/C=C/C=C/CC/C=C/C=C/C=C/C=C/C(O[C@H]2O[C@H](C)[C@@H](O)[C@H](N)[C@@H]2O)CC2O[C@](O)(CC(O)C(O)CCC(O)CC(O)CC(O)CC(=O)O[C@H]1C)CC(O)C2C(=O)O (some centres unmarked) [NYSTATIN]	51.7	1.05	34.97	–
COc1ccc(-c2coc3c4c(c(CC=C(C)C)c(O)c3c2=O)OC(C)(C)C=C4)cc1 [OSAJIN 4'-METHYL ETHER]	-2.7	-0.04	-21.87	–
COC[C@]12CN(C=O)[C@@H]3[C@@H]4[C@H](OC)[C@H]1[C@@]3([C@@H](OC)C[C@H]2O)[C@@H]1C[C@@]2(O)[C@H](OC(=O)c3ccccc3)[C@@H]1[C@]4(OC(C)=O)[C@@H](O)[C@@H]2OC [OXONITINE]	3.3	0.05	0.75	–
COc1cc2c(cc1-c1cc3cc4ccoc4cc3oc1=O)OCO2 [PACHYRRHIZIN]	-6.0	-0.08	29.77	–
CN(C)CC(=O)OC[C@@H](O)[C@@H](O)[C@H](O)[C@@H](O)C(=O)[O-].[Na+] [PANGAMIC ACID SODIUM]	–	–	-4.04	Cytotoxicity (%) (HCT-8 host cells (Hs18S); 10 µM): -61.0%
CC(=O)OCC(OC(C)=O)C(OC(C)=O)C(OC(C)=O)C(OC(C)=O)C(COC(C)=O)OC(C)=O (centres unmarked) [PERSEITOL HEPTAACETATE]	-10.1	-0.14	0.17	–
Cl.NCCc1ccccc1 [PHENETHYLAMINE HYDROCHLORIDE]	87.4	2.99	39.04	–
CC(=O)c1c(O)cc(O)cc1O [PHLORACETOPHENONE]	26.5	0.44	-25.30	–
COc1ccc(/C=C/c2cc(O)cc(O[C@@H]3O[C@H](CO)[C@@H](O)[C@H](O)[C@H]3O)c2)cc1 [PICEID METHYL ETHER]	30.3	0.52	15.82	–
COc1cc([C@@H]2c3cc4c(cc3[C@H](OC(C)=O)[C@H]3COC(=O)[C@@H]23)OCO4)cc(OC)c1OC [PICROPODOPHYLLIN ACETATE]	50.6	1.02	20.82	–
COc1cc([C@@H]2c3cc4c(cc3[C@H](OC(C)=O)[C@H]3COC(=O)[C@H]23)OCO4)cc(OC)c1OC [PODOPHYLLIN ACETATE]	33.2	0.58	72.02	% Inhibition (3.3 uM) (Cryptosporidium parvum; secondary screening at 3.3 uM): 64%
CC(C)c1c(O)c(-c2cc3c(c(C(C)C)c2O)CCC2C(C)(C)CCC[C@]32C)cc2c1CCC1C(C)(C)CCC[C@]21C (some centres unmarked) [PODOTOTARIN]	2.5	0.04	-4.91	–
COc1ccc(-c2coc3c4c(c(CC=C(C)C)c(O)c3c2=O)OC(C)(C)C=C4)cc1OC [POMIFERIN DIMETHYL ETHER]	6.1	0.09	-58.61	–
O=c1cc(-c2ccccc2)oc2cccc(O)c12 [PRIMULETIN]	3.1	0.05	-14.55	–
O=C(O)[C@@H]1CCCN1 [PROLINE (L)]	–	–	–	Hs18S ΔCT (HCT-8 host cells (Hs18S)): 0.03; Cytotoxicity (%) (HCT-8 host cells (Hs18S); 10 µM): 1.9; Inhibition (%) (Cryptosporidium parvum; 10 µM): -22.72
C[C@@H]1C[C@H](O)[C@@]2(O)[C@]13CC(=O)OC[C@@]2(C)[C@@](C)(O)C(=O)C3 [PSEUDO-ANISATIN]	9.2	0.14	-5.73	–
O=C(O)c1cc(O)c(=O)c2c(O)c(O)c(O)cc2c1 [PURPUROGALLIN-4-CARBOXYLIC ACID]	7.3	0.11	2.20	–

Compound	Cytotoxicity (%) (HCT-8 host cells (Hs18S); [1])	Hs18S ΔCT (HCT-8 host cells (Hs18S); [2])	Inhibition (%) (Cryptosporidium parvum; primary screening at 10 uM)	also measured
C=C(C)CCCC(C)CCOC(C)=O (centres unmarked) [RHODINYL ACETATE]	10.9	0.17	-15.58	–
Cc1cc2nc3c(=O)[nH]c(=O)nc-3n(C[C@H](O)[C@H](O)[C@H](O)COP(=O)([O-])O)c2cc1C.[Na+] [RIBOFLAVIN 5-PHOSPHATE SODIUM]	-25.0	-0.32	-3.47	–
NC[C@H]1O[C@H](O[C@H]2[C@H](O[C@@H]3O[C@H](CO)[C@@H](O)[C@H]3O)[C@@H](O)[C@H](N)C[C@@H]2N)[C@H](N)[C@@H](O)[C@@H]1O.O=S(=O)(O)O [RIBOSTAMYCIN SULFATE]	-2.0	-0.03	-35.94	–
COc1ccc2c(c1O)-c1c(OC)c(OC)cc3c1[C@H](C2)N(C)CC3 [S-ISOCORYDINE (+)]	-47.4	-0.56	-15.72	–
COc1cc2c(cc1O)CCNC2C (centres unmarked) [SALSOLINE]	-0.9	-0.01	-1.38	–
CC1(C)CCC[C@]2(C)[C@H]3CC(=O)O[C@]3(C)CC[C@@H]12 [SCLAREOLIDE]	32.7	0.57	26.58	–
O=C(O)C1=C[C@@H](O)[C@@H](O)[C@H](O)C1 [SHIKIMIC ACID]	–	–	–	Hs18S ΔCT (HCT-8 host cells (Hs18S); human, 41 h, 10 μM): 0.06; inhibition at 10 µM (Cryptosporidium parvum; Cryptosporidium parvum, HCT-8, primary screening at 10 uM, read-out: Inhibition (%)): 10.3%
Cc1c[nH]c2ccccc12 [SKATOLE]	18.5	0.30	25.24	–
C[C@@H]1CC[C@@]2(OC1)O[C@H]1C[C@H]3[C@@H]4CC[C@@H]5C[C@@H](O)CC[C@]5(C)[C@H]4CC[C@]3(C)[C@H]1[C@@H]2C [SMILAGENIN]	33.2	0.58	13.52	–
CC(C)=CCC/C(C)=C/CC/C(C)=C/CC/C(C)=C/CC/C(C)=C/CC/C(C)=C/CC/C(C)=C/CC/C(C)=C/CC/C(C)=C/CO [SOLANESOL]	10.5	0.16	-25.87	–
CC(=O)OC/C=C(\C)CC/C=C(\C)CC/C=C(\C)CC/C=C(\C)CC/C=C(\C)CC/C=C(\C)CC/C=C(\C)CC/C=C(\C)CCC=C(C)C [SOLANESYL ACETATE]	–	–	15.24	Hs18S ΔCT (HCT-8 host cells (Hs18S)): -0.20; Cytotoxicity (%) (HCT-8 host cells (Hs18S); 10 µM): -14.8
CC1=CC(=O)[C@H]2C(C)(C)CCC[C@]2(C)[C@@]1(O)CCc1ccoc1 [SOLIDAGENONE]	39.6	0.73	-14.64	–
CN[C@@H]1[C@H](O)[C@H](NC)[C@H]2O[C@@]3(O)C(=O)C[C@@H](C)O[C@H]3O[C@@H]2[C@H]1O.Cl [SPECTINOMYCIN HYDROCHLORIDE]	-42.8	-0.51	-6.16	–
CCNC(=O)CC[C@H](N)C(=O)[O-].[K+] [THEANINE POTASSIUM]	-36.3	-0.45	-54.47	–
C[C@@H](O)[C@H](N)C(=O)O [THREONINE (L)]	-19.5	-0.26	-20.50	–
COC(=O)C1(C)CCCC2(C)c3ccc(O)c(C(C)C)c3CCC12 (centres unmarked) [TOTAROL-19-CARBOXYLIC ACID, METHYL ESTER]	22.4	0.37	-12.62	–
